Experimental data published in the OligoGym collection.
Oligonucleotides are written 5' to 3', each unit as a sugar letter and its base; * is a phosphorothioate linkage, no mark a phosphodiester; rarer units and linkages stand in square brackets, end groups in braces. Plain capitals give the bases only. Oligonucleotides are given in HELM: sugar(base)linkage, 5' to 3'; d 2'-deoxyribose, r ribose, m 2'-O-methylribose, p phosphate. ss, as = sense and antisense strand; d = 2'-deoxy (DNA); r = 2'-OH (RNA)
Note: test concentration or dose not given here.

These substances were tested against P2RX3 (assay: reporter assay of Huesken 2005). Details: siRNA.
With “sense rCrUrCrGrArCrArGrCrGrUrUrUrCrUrGrArGrAdTdT / antisense rUrCrUrCrArGrArArArCrGrCrUrGrUrCrGrArGdCdC” the normalised inhibition (eCFP-eYFP dual reporter) was 64.2%.
“sense rArGrGrUrGrGrArCrArCrArGrUrGrGrArArArCdTdT / antisense rGrUrUrUrCrCrArCrUrGrUrGrUrCrCrArCrCrUdCdC” was tested, and the normalised inhibition (eCFP-eYFP dual reporter) was 91.4%.
“sense rCrGrCrGrGrCrUrUrUrGrArCrCrArArCrCrCrAdTdT / antisense rUrGrGrGrUrUrGrGrUrCrArArArGrCrCrGrCrGdAdT” gave a normalised inhibition (eCFP-eYFP dual reporter) of 84.4%.
“sense rUrCrCrUrCrArCrUrGrGrCrCrGrCrUrGrCrGrUdTdT / antisense rArCrGrCrArGrCrGrGrCrCrArGrUrGrArGrGrAdTdC” was tested, and the normalised inhibition (eCFP-eYFP dual reporter) was 16.4%.
Work on “sense rArCrCrArGrUrArCrArArArGrCrCrArArGrArAdTdT / antisense rUrUrCrUrUrGrGrCrUrUrUrGrUrArCrUrGrGrUdCdG” yielded a normalised inhibition (eCFP-eYFP dual reporter) of 82.9%.
With “sense rGrArArArCrGrCrCrCrArUrCrArUrGrArUrGrGdTdT / antisense rCrCrArUrCrArUrGrArUrGrGrGrCrGrUrUrUrCdCdA” the normalised inhibition (eCFP-eYFP dual reporter) was 48.7%.
In the case of “sense rArCrCrArUrCrGrGrGrArUrCrArUrCrArArCrCdTdT / antisense rGrGrUrUrGrArUrGrArUrCrCrCrGrArUrGrGrUdCdC”, the normalised inhibition (eCFP-eYFP dual reporter) is reported as 25.1%.
In the case of “sense rGrGrCrCrUrUrUrArCrUrUrCrUrGrUrGrGrGrAdTdT / antisense rUrCrCrCrArCrArGrArArGrUrArArArGrGrCrCdGdC”, the normalised inhibition (eCFP-eYFP dual reporter) is reported as 80.2%.
With “sense rUrUrGrCrGrGrGrGrCrArGrGrArUrUrUrUrGrCdTdT / antisense rGrCrArArArArUrCrCrUrGrCrCrCrCrGrCrArAdAdC” the normalised inhibition (eCFP-eYFP dual reporter) was 33.4%.
Substance “sense rCrUrArCrGrCrCrArArCrArGrArGrUrCrArUrGdTdT / antisense rCrArUrGrArCrUrCrUrGrUrUrGrGrCrGrUrArGdAdG” has a normalised inhibition (eCFP-eYFP dual reporter) of 53.4%.
Substance “sense rGrArCrCrCrUrUrUrCrUrGrCrCrCrCrArUrCrUdTdT / antisense rArGrArUrGrGrGrGrCrArGrArArArGrGrGrUrCdCdT” has a normalised inhibition (eCFP-eYFP dual reporter) of 65.8%.
Substance “sense rGrUrArCrCrGrCrArCrCrCrUrCrCrUrGrArArGdTdT / antisense rCrUrUrCrArGrGrArGrGrGrUrGrCrGrGrUrArCdTdC” has a normalised inhibition (eCFP-eYFP dual reporter) of 37.1%.
“sense rCrCrArArGrArUrGrArUrUrGrUrUrArCrUrGrAdTdT / antisense rUrCrArGrUrArArCrArArUrCrArUrCrUrUrGrGdTdG” gave a normalised inhibition (eCFP-eYFP dual reporter) of 98.9%.
Substance “sense rUrArGrGrGrUrGrGrGrUrUrUrUrCrUrUrGrCrAdTdT / antisense rUrGrCrArArGrArArArArCrCrCrArCrCrCrUrAdCdA” has a normalised inhibition (eCFP-eYFP dual reporter) of 82.2%.
Work on “sense rGrArArGrCrUrGrArGrArArCrUrUrCrArCrUrAdTdT / antisense rUrArGrUrGrArArGrUrUrCrUrCrArGrCrUrUrCdCdA” yielded a normalised inhibition (eCFP-eYFP dual reporter) of 88.8%.
“sense rUrUrUrCrUrGrCrCrCrCrArUrCrUrUrGrCrGrGdTdT / antisense rCrCrGrCrArArGrArUrGrGrGrGrCrArGrArArAdGdG” gave a normalised inhibition (eCFP-eYFP dual reporter) of 35.2%.
For “sense rCrCrArCrArGrCrGrGrArGrArArGrCrArGrUrCdTdT / antisense rGrArCrUrGrCrUrUrCrUrCrCrGrCrUrGrUrGrGdTdC”, the normalised inhibition (eCFP-eYFP dual reporter) was 62.7%.
“sense rCrArArGrGrArUrUrCrUrGrCrCrCrArGrArGrAdTdT / antisense rUrCrUrCrUrGrGrGrCrArGrArArUrCrCrUrUrGdCdA” was tested, and the normalised inhibition (eCFP-eYFP dual reporter) was 102%.
Work on “sense rGrCrGrGrGrGrCrArGrGrArUrUrUrUrGrCrCrAdTdT / antisense rUrGrGrCrArArArArUrCrCrUrGrCrCrCrCrGrCdAdA” yielded a normalised inhibition (eCFP-eYFP dual reporter) of 67.8%.

The substances below were run against UBE2K (assay: reporter assay of Huesken 2005). Details: siRNA.
With “RNA1{r(C)p.r(C)p.r(C)p.r(G)p.r(A)p.r(A)p.r(A)p.r(U)p.r(G)p.r(U)p.r(U)p.r(C)p.r(A)p.r(A)p.r(A)p.r(C)p.r(A)p.r(G)p.r(A)p.d(T)p.d(T)}|RNA2{r(U)p.r(C)p.r(U)p.r(G)p.r(U)p.r(U)p.r(U)p.r(G)p.r(A)p.r(A)p.r(C)p.r(A)p.r(U)p.r(U)p.r(U)p.r(C)p.r(G)p.r(G)p.r(G)p.d(A)p.d(T)}$$$RNA1{StrandType:ss}|RNA2{StrandType:as}$” the normalised inhibition (eCFP-eYFP dual reporter) was 92.7%.
Substance “RNA1{r(G)p.r(U)p.r(U)p.r(U)p.r(G)p.r(G)p.r(A)p.r(U)p.r(A)p.r(U)p.r(C)p.r(C)p.r(U)p.r(G)p.r(A)p.r(A)p.r(A)p.r(G)p.r(A)p.d(T)p.d(T)}|RNA2{r(U)p.r(C)p.r(U)p.r(U)p.r(U)p.r(C)p.r(A)p.r(G)p.r(G)p.r(A)p.r(U)p.r(A)p.r(U)p.r(C)p.r(C)p.r(A)p.r(A)p.r(A)p.r(C)p.d(A)p.d(A)}$$$RNA1{StrandType:ss}|RNA2{StrandType:as}$” has a normalised inhibition (eCFP-eYFP dual reporter) of 87.1%.
Substance “RNA1{r(A)p.r(A)p.r(A)p.r(U)p.r(A)p.r(G)p.r(C)p.r(A)p.r(G)p.r(G)p.r(A)p.r(C)p.r(C)p.r(U)p.r(C)p.r(C)p.r(A)p.r(G)p.r(A)p.d(T)p.d(T)}|RNA2{r(U)p.r(C)p.r(U)p.r(G)p.r(G)p.r(A)p.r(G)p.r(G)p.r(U)p.r(C)p.r(C)p.r(U)p.r(G)p.r(C)p.r(U)p.r(A)p.r(U)p.r(U)p.r(U)p.d(C)p.d(T)}$$$RNA1{StrandType:ss}|RNA2{StrandType:as}$” has a normalised inhibition (eCFP-eYFP dual reporter) of 65.4%.
“RNA1{r(C)p.r(C)p.r(A)p.r(G)p.r(A)p.r(U)p.r(G)p.r(A)p.r(U)p.r(C)p.r(C)p.r(A)p.r(C)p.r(A)p.r(G)p.r(G)p.r(A)p.r(U)p.r(G)p.d(T)p.d(T)}|RNA2{r(C)p.r(A)p.r(U)p.r(C)p.r(C)p.r(U)p.r(G)p.r(U)p.r(G)p.r(G)p.r(A)p.r(U)p.r(C)p.r(A)p.r(U)p.r(C)p.r(U)p.r(G)p.r(G)p.d(C)p.d(T)}$$$RNA1{StrandType:ss}|RNA2{StrandType:as}$” gave a normalised inhibition (eCFP-eYFP dual reporter) of 66.7%.
Work on “RNA1{r(U)p.r(C)p.r(C)p.r(A)p.r(G)p.r(A)p.r(C)p.r(A)p.r(C)p.r(A)p.r(C)p.r(C)p.r(A)p.r(U)p.r(A)p.r(U)p.r(G)p.r(A)p.r(A)p.d(T)p.d(T)}|RNA2{r(U)p.r(U)p.r(C)p.r(A)p.r(U)p.r(A)p.r(U)p.r(G)p.r(G)p.r(U)p.r(G)p.r(U)p.r(G)p.r(U)p.r(C)p.r(U)p.r(G)p.r(G)p.r(A)p.d(G)p.d(G)}$$$RNA1{StrandType:ss}|RNA2{StrandType:as}$” yielded a normalised inhibition (eCFP-eYFP dual reporter) of 73.9%.
Work on “RNA1{r(A)p.r(C)p.r(U)p.r(A)p.r(U)p.r(U)p.r(G)p.r(G)p.r(C)p.r(A)p.r(G)p.r(C)p.r(U)p.r(G)p.r(C)p.r(A)p.r(G)p.r(A)p.r(G)p.d(T)p.d(T)}|RNA2{r(C)p.r(U)p.r(C)p.r(U)p.r(G)p.r(C)p.r(A)p.r(G)p.r(C)p.r(U)p.r(G)p.r(C)p.r(C)p.r(A)p.r(A)p.r(U)p.r(A)p.r(G)p.r(U)p.d(G)p.d(C)}$$$RNA1{StrandType:ss}|RNA2{StrandType:as}$” yielded a normalised inhibition (eCFP-eYFP dual reporter) of 62%.
For “RNA1{r(C)p.r(U)p.r(U)p.r(G)p.r(U)p.r(A)p.r(G)p.r(A)p.r(U)p.r(G)p.r(A)p.r(G)p.r(A)p.r(A)p.r(U)p.r(U)p.r(U)p.r(U)p.r(A)p.d(T)p.d(T)}|RNA2{r(U)p.r(A)p.r(A)p.r(A)p.r(A)p.r(U)p.r(U)p.r(C)p.r(U)p.r(C)p.r(A)p.r(U)p.r(C)p.r(U)p.r(A)p.r(C)p.r(A)p.r(A)p.r(G)p.d(A)p.d(T)}$$$RNA1{StrandType:ss}|RNA2{StrandType:as}$”, the normalised inhibition (eCFP-eYFP dual reporter) was 91.3%.
“RNA1{r(A)p.r(G)p.r(G)p.r(A)p.r(G)p.r(A)p.r(A)p.r(A)p.r(U)p.r(A)p.r(G)p.r(C)p.r(A)p.r(G)p.r(G)p.r(A)p.r(C)p.r(C)p.r(U)p.d(T)p.d(T)}|RNA2{r(A)p.r(G)p.r(G)p.r(U)p.r(C)p.r(C)p.r(U)p.r(G)p.r(C)p.r(U)p.r(A)p.r(U)p.r(U)p.r(U)p.r(C)p.r(U)p.r(C)p.r(C)p.r(U)p.d(C)p.d(T)}$$$RNA1{StrandType:ss}|RNA2{StrandType:as}$” gave a normalised inhibition (eCFP-eYFP dual reporter) of 69.4%.
“RNA1{r(A)p.r(U)p.r(A)p.r(C)p.r(C)p.r(A)p.r(A)p.r(C)p.r(U)p.r(A)p.r(G)p.r(A)p.r(G)p.r(A)p.r(U)p.r(A)p.r(A)p.r(A)p.r(A)p.d(T)p.d(T)}|RNA2{r(U)p.r(U)p.r(U)p.r(U)p.r(A)p.r(U)p.r(C)p.r(U)p.r(C)p.r(U)p.r(A)p.r(G)p.r(U)p.r(U)p.r(G)p.r(G)p.r(U)p.r(A)p.r(U)p.d(C)p.d(T)}$$$RNA1{StrandType:ss}|RNA2{StrandType:as}$” gave a normalised inhibition (eCFP-eYFP dual reporter) of 78.5%.
For “RNA1{r(A)p.r(C)p.r(U)p.r(A)p.r(A)p.r(A)p.r(A)p.r(U)p.r(A)p.r(U)p.r(G)p.r(G)p.r(C)p.r(A)p.r(U)p.r(C)p.r(C)p.r(U)p.r(A)p.d(T)p.d(T)}|RNA2{r(U)p.r(A)p.r(G)p.r(G)p.r(A)p.r(U)p.r(G)p.r(C)p.r(C)p.r(A)p.r(U)p.r(A)p.r(U)p.r(U)p.r(U)p.r(U)p.r(A)p.r(G)p.r(U)p.d(G)p.d(A)}$$$RNA1{StrandType:ss}|RNA2{StrandType:as}$”, the normalised inhibition (eCFP-eYFP dual reporter) was 76%.
“RNA1{r(U)p.r(G)p.r(U)p.r(U)p.r(U)p.r(G)p.r(G)p.r(A)p.r(U)p.r(A)p.r(U)p.r(C)p.r(C)p.r(U)p.r(G)p.r(A)p.r(A)p.r(A)p.r(G)p.d(T)p.d(T)}|RNA2{r(C)p.r(U)p.r(U)p.r(U)p.r(C)p.r(A)p.r(G)p.r(G)p.r(A)p.r(U)p.r(A)p.r(U)p.r(C)p.r(C)p.r(A)p.r(A)p.r(A)p.r(C)p.r(A)p.d(A)p.d(A)}$$$RNA1{StrandType:ss}|RNA2{StrandType:as}$” showed a normalised inhibition (eCFP-eYFP dual reporter) of 58.7%.
For “RNA1{r(C)p.r(A)p.r(G)p.r(A)p.r(C)p.r(A)p.r(C)p.r(A)p.r(C)p.r(C)p.r(A)p.r(U)p.r(A)p.r(U)p.r(G)p.r(A)p.r(A)p.r(G)p.r(G)p.d(T)p.d(T)}|RNA2{r(C)p.r(C)p.r(U)p.r(U)p.r(C)p.r(A)p.r(U)p.r(A)p.r(U)p.r(G)p.r(G)p.r(U)p.r(G)p.r(U)p.r(G)p.r(U)p.r(C)p.r(U)p.r(G)p.d(G)p.d(A)}$$$RNA1{StrandType:ss}|RNA2{StrandType:as}$”, the normalised inhibition (eCFP-eYFP dual reporter) was 72.8%.
“RNA1{r(U)p.r(A)p.r(G)p.r(A)p.r(U)p.r(C)p.r(U)p.r(U)p.r(G)p.r(U)p.r(A)p.r(G)p.r(A)p.r(U)p.r(G)p.r(A)p.r(G)p.r(A)p.r(A)p.d(T)p.d(T)}|RNA2{r(U)p.r(U)p.r(C)p.r(U)p.r(C)p.r(A)p.r(U)p.r(C)p.r(U)p.r(A)p.r(C)p.r(A)p.r(A)p.r(G)p.r(A)p.r(U)p.r(C)p.r(U)p.r(A)p.d(C)p.d(T)}$$$RNA1{StrandType:ss}|RNA2{StrandType:as}$” was tested, and the normalised inhibition (eCFP-eYFP dual reporter) was 85.7%.
